Laboratory results: patent US20040163143A1, “Method for efficiently producing transgenic plant using auxin precursor” (NIPPON PAPER INDUSTRIES CO., LTD., priority 2002, published 2004)

Legend:
Assay type in all cases: cell-based, Eucalyptus globulus
[1] = system: stem sections of a high rooting clone of E. globulus; assay: gene introduction test on high rooting clone of E. globulus, vector pIPT10; conditions: same manner as Example 3 (NAM 1 μM)
Procedure: (§1) Definite buds of a high rooting clone of E. globulus from Chile were aseptically grown using a medium prepared by adding 0.5 mg/l zeatin to the Y basal medium of Example 2, and the elongated stems were cut into sections of 5 mm to be used as samples for gene introduction and infected with the plasmid pIAH6-introduced Agrobacterium in the same manner as in Example 1. The sections after infection culturing were put on an EG basal agar medium (agar 8.5 g/l) supplemented with 500 mg/l ticarcillin and 1 μM of an auxin precursor analogue NAM, and the culturing was continued at 25° C. under light conditions of 30 to 40 μmol/m^2/s in light intensity while sub-culturing at an interval of 2 weeks using the same medium. Four months after the Agrobacterium infection, the redifferentiated adventitious buds were subjected to a GUS staining test in accordance with the above method of Jefferson et al., and the degree of formation of desired gene-introduced adventitious buds was judged. Using plasmid pIPT10 as the vector, a gene introduction test was carried out into a high rooting clone of E. globulus in the same manner as in Example 3.

[2] = system: stem sections of a high rooting clone of E. globulus; assay: gene introduction test on high rooting clone of E. globulus, vector pIAH6, GUS staining; conditions: NAM 1 μM
Procedure: as §1, with “judged.” for “judged. Using plasmid pIPT10 as the vector, a gene introduction test was carried out into a high rooting clone of E. globulus in the same manner as in Example 3.”

[3] = system: E. globulus hypocotyl sections; assay: E. globulus gene introduction test, vector pIAH6 (ipt + iaaH + GUS), adventitious bud redifferentiation and GUS staining; conditions: for B Adventitious bud differentiated (number of sections): 3 months after infection; for B/A Redifferentiation ratio / C/A Gene introduction ratio / C/B Selection efficiency: section basis
Procedure: Using a plasmid pIAH6 as a vector having a GUS gene as a model of a desired gene and an ipt gene and an iaaH gene as selectable marker genes, a transformant was produced by carrying out gene introduction into Eucalyptus globulus (hereinafter referred to as “E. globulus”) by the method of the present invention. Seeds of E. globulus from Chile were sterilized by soaking in 70% ethanol for about 1 minute and then soaking with stirring in a 2% aqueous sodium hypochlorite solution for about 4 hours, washed thoroughly with sterile water, inoculated on an MS agar medium to which 0.5 mg/l zeatin had been added and stored in a refrigerator at 4° C. for 2 days to accelerate germination, and then the germination was carried out by culturing at 25° C. under light conditions of about 10 μmol/m^2/s in light intensity. One to two weeks after the inoculation of the seeds onto the germination medium, hypocotyls were collected by cutting out apical buds, cotyledons and roots of the germinated seedlings, and the hypocotyls were cut into sections of about 5 mm to be used as samples for gene introduction and subjected to the following test. A. tumefaciens EHA105 introduced with the plasmid pIAH6 in the above item I was cultured overnight in the YEB liquid medium and then diluted to OD630 =0.5 with EG basal medium, and the sections of hypocotyl prepared in the above were soaked in the cell suspension. Next, each of the sections after removing excess cell suspension was co-cultured with Agrobacterium on an agar medium (agar 8.5 g/l) prepared by adding 1.0 mg/l zeatin, 0.05 mg/l NAA and 40 mg/l acetosyringone to the EG basal medium, at 25° C. for 3 days in the dark to thereby infect each section with the pIAH6-introduced Agrobacterium. In this case, a modified MS medium having an ammonia nitrogen/nitrate nitrogen concentration ratio of 1:3 (5 mM NH4, 15 mM NO3) was supplemented with 20 g/l sucrose and used as the EG basal medium. The sections after infection culturing were put on an EG basal agar medium (agar 8.5 g/l) supplemented with 500 mg/l ticarcillin and 1 μM or 10 μM of an auxin precursor analogue NAM, and the culturing was continued at 25° C. under light conditions of 30 to 40 μmol/m^2/s in light intensity while sub-culturing at an interval of 2 weeks using the same medium. Among these sections, the quicker ones redifferentiated adventitious buds after about 2 months of the Agrobacterium infection. Three months after the Agrobacterium infection, in order to examine expression of the GUS gene used as a model of the desired gene, the redifferentiated adventitious buds were subjected to a GUS staining test in accordance with the method of Jefferson et al. (Plant Mol. Biol. Rep., 5: 387-405 (1987)), and the degree of formation of desired gene-introduced adventitious buds was judged by examining the number of stained adventitious buds (the number of adventitious buds expressing the desired gene). An E. globulus gene introduction test was carried out in the same manner as in Example 1, except that the hypocotyl sections after the Agrobacterium infection were cultured using the EG basal agar medium (agar 8.5 g/l) supplemented with 500 mg/l ticarcillin and 0 μM, 1 μM or 10 μM NAA as auxin.

[4] = NAM 1 μM in medium, 60 sections tested
[5] = NAM 10 μM in medium, 48 sections tested

NC(=O)Cc1cccc2ccccc12 [NAM, naphthaleneacetic acid amide]
redifferentiated individuals into which the desired gene was introduced [1]: not obtained | redifferentiation of adventitious buds [1]: not redifferentiated | sections whose buds had the desired gene introduced (GUS staining) ([2]; among 40 stem sections): 3 sections | sections from which adventitious buds were differentiated ([2]; among 40 stem sections, 4 months after infection): 5 sections | gene introduction ratio into adventitious buds ([2]; section basis): 7.5% | redifferentiation ratio of adventitious buds ([2]; section basis): 12.5% | selection efficiency ([2]; section basis): 60.0% | C GUS + adventitious bud differentiated (number of sections) [3, 4]: 8 number of sections | B Adventitious bud differentiated (number of sections) [3, 4]: 21 number of sections | B/A Redifferentiation ratio ([3]; NAM 1 μM in medium): 35.0% | C/A Gene introduction ratio ([3]; NAM 1 μM in medium): 13.3% | C/B Selection efficiency ([3]; NAM 1 μM in medium): 38.1% | C GUS + adventitious bud differentiated (number of sections) [3, 5]: 1 number of sections | B Adventitious bud differentiated (number of sections) [3, 5]: 2 number of sections | B/A Redifferentiation ratio ([3]; NAM 10 μM in medium): 4.2% | C/A Gene introduction ratio ([3]; NAM 10 μM in medium): 2.1% | C/B Selection efficiency ([3]; NAM 10 μM in medium): 50.0%
